Laboratory results reported in US5952008A, “Processes for preparing compositions for inhalation” (AB Astra, priority 1993, dated 1999).

Assays:
[1] = Inhalation of insulin/enhancer powder in rats, blood glucose monitored as measure of insulin uptake; format: in vivo, rat; conditions: for Effect (enhancement of insulin uptake, blood glucose level): rats, inhaled powder; for Enhancement of polypeptide (insulin) absorption in the lung, result in words: rat model
Method: Each of the compounds listed in Table I was tested for its ability to enhance uptake of a polypeptide (insulin) in a rat model.
Various forms of insulin were employed in the different trials: recombinant human, semisynthetic human or bovine. Each formulation was prepared as above, drying and processing the insulin/enhancer or insulin/enhancer/lactose solution to produce an inhalable powder. The powder was administered to rats by inhalation, and the blood glucose levels of the rats were subsequently monitored as a measure of insulin uptake. These levels were compared to the corresponding values obtained from rats which had inhaled insulin formulations without enhancer.

[2] = test system: CaCo-2 epithelial cell monolayer; assay: In vitro CaCo-2 epithelial cell monolayer transport assay; format: in vitro ADME; conditions: for Transport rate across the monolayer with enhancer, in words: up to 16 mM sodium caprate
Method: A standard in vitro assay utilizing an epithelial cell line, CaCo-2 (available through the American Type Culture Collection (ATCC), Rockville, Md., USA), has been developed to assess the ability of various enhancer compounds to promote transport of markers across an epithelial cell monolayer, as a model for the epithelial cell layer which functions in the lung to separate the alveolus from the pulmonary blood supply.
In this assay, the enhancer and polypeptide or other marker are dissolved in aqueous solution at various proportions and/or concentrations, and applied to the apical side of the cell monolayer. After 60 min incubation at 37° C. and 95% RH (relative humidity), the amount of the marker on the basolateral side of the cells is determined, e.g., by use of a radioactively labelled marker.

[3] = Enhancer:Insulin:lactose 2:4:94
[4] = Enhancer:Insulin:lactose 4:4:92
[5] = Enhancer:Insulin:lactose 25:75:0

Compound | Enhancement of polypeptide (insulin) absorption in the lung, result in words [1] | Effect (enhancement of insulin uptake, blood glucose level) [1, 4] | other results
CCCCCCCC(=O)OCC(COP(=O)([O-])OCC[N+](C)(C)C)OC(=O)CCCCCCC (stereo not shown) [Dioctanoylphosphatidylcholine] |  |  | Effect (enhancement of insulin uptake, blood glucose level) [1, 3]: (+); Effect (enhancement of insulin uptake, blood glucose level) ([1]; Enhancer:Insulin:lactose 4:4:94): -
O=C(O)CN(CCN(CC(=O)O)CC(=O)O)CC(=O)O [EDTA, ethylenediaminetetraacetic acid] | ineffective |  | 
CCCCCCCCOC1O[C@H](CO)[C@@H](O)[C@H](O)[C@H]1O (stereo partly shown) [Octylglucopyranoside] | some absorption enhancing properties | (+) | 
CCCCCCCCCC(=O)[O-].[K+] [Potassium caprate] | effective |  | Effect (enhancement of insulin uptake, blood glucose level) ([1]; Enhancer:Insulin:lactose 27:73:0): +
CCCCCCCC/C=C\CCCCCCCC(=O)[O-].[K+] [Potassium oleate] |  | + | 
CCCCCCCCCC(=O)[O-].[Na+] [Sodium caprate] | perform well |  | Effect (enhancement of insulin uptake, blood glucose level) ([1]; Enhancer:Insulin:lactose 10:90:0): (+); Effect (enhancement of insulin uptake, blood glucose level) ([1]; Enhancer:Insulin:lactose 17.5:82.5:0): (+); Effect (enhancement of insulin uptake, blood glucose level) [1, 5]: +; Amount of marker (mannitol) appearing on the basolateral side, insulin added ([2]; 1:3 sodium caprate:insulin by weight, FIG. 2): dependent upon the concentration of enhancer used; Amount of marker (mannitol) appearing on the basolateral side ([2]; sodium caprate up to 16 mM, 60 min, 37° C., FIG. 1): dependent upon the concentration of enhancer used
CCCCCCCC(=O)[O-].[Na+] [Sodium caprylate] |  |  | Effect (enhancement of insulin uptake, blood glucose level) [1, 5]: -
C[C@H](CCC(=O)NCC(=O)O)[C@H]1CC[C@H]2[C@@H]3[C@H](O)C[C@@H]4C[C@H](O)CC[C@]4(C)[C@H]3C[C@H](O)[C@]12C [Sodium glycocholate] | effectively enhance polypeptide absorption in the lung | + | 
CCCCCCCCCCCC(=O)[O-].[Na+] [Sodium laurate] | perform well |  | Effect (enhancement of insulin uptake, blood glucose level) [1, 5]: +
CCCCCCCCCCCCCC(=O)[O-].[Na+] [Sodium myristate] | perform well |  | Effect (enhancement of insulin uptake, blood glucose level) ([1]; Enhancer:Insulin:lactose 30:70:0): +
CC(=O)OC1CC2(C)C(CC(O)C3C4(C)CCC(O)C(C)C4CCC32C)C1=C(CCCC(C)C)C(=O)NCCS(=O)(=O)O (stereo not shown) [Sodium tarodihydrofusidate] | effectively enhance polypeptide absorption in the lung |  | Effect (enhancement of insulin uptake, blood glucose level) [1, 3]: +
C[C@H](CCC(=O)NCCS(=O)(=O)O)[C@H]1CC[C@H]2[C@@H]3[C@H](O)C[C@@H]4C[C@H](O)CC[C@]4(C)[C@H]3C[C@H](O)[C@]12C [Sodium taurocholate] | effectively enhance polypeptide absorption in the lung | + | 
C[C@H](CCC(=O)O)[C@H]1CC[C@H]2[C@@H]3[C@@H](O)C[C@@H]4C[C@H](O)CC[C@]4(C)[C@H]3CC[C@]12C [Sodium ursodeoxycholate] | effectively enhance polypeptide absorption in the lung | + | 
NC(=O)CC[C@@H]1NC(=O)[C@H](Cc2ccccc2)NC(=O)[C@H](Cc2ccc(O)cc2)NC(=O)[C@@H](N)CSSC[C@@H](C(=O)N2CCC[C@H]2C(=O)N[C@@H](CCCN=C(N)N)C(=O)NCC(N)=O)NC(=O)[C@H](CC(N)=O)NC1=O [vasopressin] |  |  | Increase in amount absorbed across the monolayer compared to absence of enhancer ([2]; 16 mM sodium caprate): 10-15 times
Dimethyl-β-cyclodextrin | absorption enhancing effect |  | Effect (enhancement of insulin uptake, blood glucose level) ([1]; Enhancer:Insulin:lactose 75:25:0): +
Lysine caprate | effective |  | Effect (enhancement of insulin uptake, blood glucose level) ([1]; Enhancer:Insulin:lactose 35:65:0): +
Lysophosphatidylcholine | effective enhancer | + | 
albumin |  |  | Transport rate across the monolayer with enhancer, in words [2]: no increase in transport rate
carbonic anhydrase |  |  | Transport rate across the monolayer with enhancer, in words [2]: no increase in transport rate
cytochrome C |  |  | Transport rate across the monolayer with enhancer, in words [2]: no increase in transport rate
